The numbers were not newly measured in patent EP0176772A1, “Process for sustaining the release of vitamins C and E” (RODISMA Pharmazeutische Produkte GmbH, priority 1984, dated 1986), which cites them from elsewhere.

Assay in data set [1]: not given
The source holds these as a separate data set.

Like-named read-outs stand apart in the source and are kept apart here.

For `O=C1O[C@H]([C@@H](O)CO)C(O)=C1O` [Vitamin C, Ascorbinsäure], the Resorption (Einzeldosen bis 180 mg, dosisproportional (Kübler und Gehler)) was about 70%. Further, the resorbiert (Einzeldosis von 1 g, 3-Kompartiment-Modell (Hornig und Moser)) is on record as 75% and the resorbiert (orale Ascorbinsäurebelastung mit 12 g) was 16%.

For the compound `Cc1c(C)c2c(c(C)c1O)CCC(C)(CCCC(C)CCCC(C)CCCC(C)C)O2` [D-alpha-Tocopherol], the “maximale Plasmaspiegel, time of” value in data set [1] (orale Verabreichung von 600 mg an eine Versuchsperson (Hashim und Schuttringer)) is on record as about 7 Stunden. Moreover, the “Maximum der Plasma-Tocopherol-Konzentration, time of” value in data set [1] (orale Verabreichung von (Hashim und Schuttringer)) was 7 Stunden.

For Vitamin E, the “Maximum (plasma vitamin E), time of” value in data set [1] (human, in vivo, po) was 7 Stunden.
